Assay results published in US7368439B2, “Dinucleoside poly(borano)phosphate derivatives and uses thereof” (BAR - ILAN University, priority 2005, dated 2008).
Like-named read-outs stand apart in the source and are kept apart here.

What was measured:
[1] = for calculated hydrolysis rate constant: pH 1.4/37° C., KCl/HCl buffer, sodium salts, pseudo first-order fit
Procedure: To evaluate chemical stability at pH 1.4, sodium salts of dinucleoside poly(borano)phosphate analogues were dissolved in KCl/HCl buffer (pH 1.4, 0.44 ml) and D2O (0.06 ml). The final pH was then adjusted with HCl and measured with a pH-meter (final concentration 0.016 M). ^31P NMR spectra of Ap3(β-B)A and Up3(β-B)U were recorded during 3 h at 10 min time intervals at 37° C. Number of scans in all experiments was 1200, number of experiments was 17. The hydrolysis rate was determined by measurements of absolute integration of Pα (2.5 ppm) signal as a function of time and was fitted to a pseudo-first-order reaction model.
^31P NMR spectra of Ap5(β-B)A was recorded during 1 h at 10 min time intervals at 37° C. Number of scans in all experiments was 1200, number of experiments was 6. The hydrolysis rate was determined by measurement the absolute intagration of Pβ signal as a function of time and was fitted to a pseudo-first-order reaction model.
Chemical stability under conditions simulating gastric juice (pH 1.4/37° C.) was evaluated with Ap3(β-B)A, 1, Up3(β-B)U, 2, and Ap5(γ-B)A, 3 sodium salts, in KCl/HCl buffer. ^31P NMR spectra was recorded during 3 h at 10 min intervals. […] The intensity changes of the monophosphate ^31P signal with time were fit to a pseudo first-order exponential decay rate equation with respect to 1/2 concentration.

INS-1 cells = experiment: Glucose-dependent stimulation of insulin secretion in INS-1 cells; assay type: cell-based; conditions: 6 mM glucose
Procedure: Compound 2, sodium salt, was tested for insulinotropic effect on insulin-secreting INS-1 cells (Hohmeier et al., 2000). Briefly, the cells were plated at a density of 2×10^5 in 12-well plates in RPMI with 10% fetal calf serum containing 11 mM glucose and maintained at 37° C. in a humidified atmosphere containing 5% CO2 for 2 days. The medium was removed on the third day post-plating and replaced with RPMI containing 3 mM glucose with 10% fetal calf serum. The cells were incubated for an additional 24 hours at 37° C. in a humidified atmosphere containing 5% CO2. On the fourth day post-plating, the medium was removed and replaced with Krebs-Ringer bicarbonate Hepes buffer (pH 7.4) containing 2 mM glucose. The cells were incubated for 30 min, and then the buffer was removed and replaced with Krebs-Ringer bicarbonate Hepes buffer (pH 7.4) with 6 mM glucose containing the test compound at various concentrations. The cells were incubated for 1 hour. Basal insulin secretion was determined by incubating the cells in the presence of buffer with 2 mM glucose. The presence of glucose at 6 and 10 mM stimulated insulin secretion and served as the reference control and positive control, respectively. A positive stimulatory response by the test compound was taken as the response above that elicited by 6 mM glucose.

[2] = pH 7.4/37° C., Tris/HCl buffer; for deboranation products: 4 weeks; for decomposition: 4 weeks (one month), sodium salts
Procedure: Dinucleosides poly(borano)phosphates tri- or penta-sodium salts were dissolved in Tris/HCl buffer (pH 7.4, 0.45 ml), and D2O (0.6 ml). pH 7.4 was then adjusted with HCl and measured with a pH-meter. Final analogue concentration was about 0.02 M. ^31P NMR spectra were recorded during 4 weeks at 3-7 days intervals at 37° C. Percentage of phosphoester hydrolysis of Ap3(β-B)A/Up3(β-B)U is based on absolute integrations of monophosphate signal (2.5 ppm). Percentage of phosphodiester hydrolysis of dinucleoside pentaphosphate is based on absolute integrations of Pα signal of ADP or UDP products.
Thus, ^31P NMR spectra of Up3(β-B)U, 2, and Ap5(β-B)A, 3, tri- and penta-sodium salts, respectively, in Tris/HCl buffer (in H2O), pH 7.4, were recorded during 4 weeks at 1- to 3-day intervals at 37° C.

human islets = experiment: Insulin secretion using human islets; assay type: cell-based; conditions: 12 mM glucose; 10^−13 and 10^−12 M; 30 minutes at 37° C.; FIG. 3
Procedure: Islets aliquots were supplemented with 1 ml of medium containing 2.2, 12 or 22 mM glucose, or 22 mM glucose with 3-isobutyl-1-methylxanthine (IBMX) as a positive control, in the presence of various concentration of Up3(β-B)U tri-sodium salt, and incubated for 30 minutes at 37° C. in a humidified atmosphere containing 5% CO2. The medium was then collected for determination of insulin level; islets were collected for determination of protein; and insulin secretion was normalized to total protein. Basal insulin secretion was determined by incubating the islets in the presence of buffer containing 2 mM glucose.
Islets were kept in CMRL 1066 medium containing 5.5 mM glucose for 2-3 days and then washed out with medium containing 2.2 mM glucose. Islet aliquots were supplemented with 1 ml of medium containing 2.2, 12 or 22 mM glucose or 22 mM glucose with 3-isobutyl-1-methylxanthine (IBMX), in the presence or absence of the different secretagogues. The experiments were done in triplicate. Islets were incubated for 30 minutes at 37° C. in a humidified atmosphere containing 5% CO2. After incubation, the medium was collected for determination of insulin level. Quantification of insulin was done in duplicate using human insulin ELISA kit (ALPCO). […] Basal insulin secretion was determined by incubating the islets in the presence of buffer with 2 mM glucose. […]

[3] = tested on: Diet-Induced Obesity (DIO) mouse model; experiment: Glycemic response of DIO mice in the Oral Glucose Tolerance Test after a single intravenous administration; assay type: in vivo
Procedure: C57BL/6 male mice (Charles River Canada, St-Constant, Qc, Canada) were received at 7-8 weeks of age and fed a high fat diet (60% of calories from fat) for 6-8 weeks to induce hyperglycemia and obesity (Surwit et al., 1988). Blood glucose was checked and animals with readings between 200 and 220 mg/dl were included in the study. The animals were randomized based on their body weight and glycemic values, into control and treatment groups (n=6-8). The animals received a single intravenous injection of the test compound one minute prior to the Oral Glucose Tolerance Test (OGTT). The control group received vehicle (saline) alone. Blood samples (one drop) were collected from the tail vein prior to the administration of the test compound and at 5, 10, 20, 30, 60, 90 and 120 minutes post-glucose administration. Whole blood glucose values were determined using a hand-held glucometer (Model OneTouch Ultra, LifeScan). All data are expressed as mean±SEM.
FIG. 2 is an area under the curve (AUC) graph of delta glycemia. It is a representation of the area under the curve of the responses seen during the oral glucose tolerance test challenge. The data are corrected for the baseline blood glucose levels of the individual mice. […] If the area under the curves is integrated, the response can be quantified as represented in the bar graph.

fold less stable than ATP-α-B analogues ([1]; under gastric juice conditions) [fold]	Compound	calculated hydrolysis rate constant [1] [s⁻¹]	insulin secretion versus background (INS-1 cells; 1 hour incubation, FIG. 1)	activity on insulin secretion at low concentrations (INS-1 cells; 10^−12 and 10^−11 M, activity dropping as the concentration increased)	deboranation products [2]	insulin secretion by human islets (human islets)	activity on glycemia at low concentration ([3]; 100 ng/kg intravenous, activity dropping as the concentration decreased)	effect on the increase of glycemia (delta glycemia, AUC) ([3]; DIO-mice, intravenous, one minute prior to the glucose challenge, FIG. 2)	fold less hydrolytically stable compared to Ap3(β-B)A ([1]; gastric juice conditions)	decomposition [2]	decomposition ([2]; listed as Ap5(γ-B)A)
–	diuridine tri(borano)phosphate [compound 2]	0.000165	stimulated insulin secretion above background levels	active at low concentrations	No deboranation products could be detected	able to promote significant insulin secretion	active at low concentration	partially inhibited the increase of the glycemia	–	–	–
2	diadenosine tri(borano)phosphate [compound 1]	0.000152	–	–	–	–	–	–	–	–	–
–	BP(=O)(OP(=O)(O)OP(=O)(O)OCC1OC(n2cnc3c(N)ncnc32)C(O)C1O)OP(=O)(O)OP(=O)(O)OCC1OC(n2cnc3c(N)ncnc32)C(O)C1O (stereo not shown) [compound 3, diadenosine penta(borano)phosphate]	–	–	–	No deboranation products could be detected	–	–	–	about 4 fold	less than 15%	less than 10%
